From patent publication US20120214193A1, “METHOD FOR MEASUREMENT OF FLUORESCENCE INTENSITY OF VOLTAGE-SENSITIVE FLUORESCENT DYE” (Keio University, priority 2009, published 2012)

Test system: human ES cell derived cardiomyocytes
Assay: Activity potential measurement of cardiomyocytes treated with a potential-sensitive fluorochrome
Type: cell-based
Conditions: 18.75 μM vitamin E and/or 18.75 μM cholesterol
From the text: Human embryonic stem cells (ES cells) were obtained from Stem Cell Research Center, the Institute for Frontier Medical Sciences, Kyoto University (Embryonic Stem Cell Center sponsored by the National Bioresource Project). Human induced pluripotent stem cells (iPS cells) were obtained from the Center for iPS Cell Research and Application, Institute for Integrated Cell-Material Sciences, Kyoto University. […] To prepare the MEF cells, the fetus of an ICR mouse at day 14 of gestation (CLEA Japan, Inc.) was beheaded and disemboweled and thereafter disintegrated into discrete cells by the method described in WO 2006/022377. […] In other experiments, the cultured cells were treated with a potential-sensitive fluorochrome and 18.75 μM of vitamin E and/or 18.75 μM of cholesterol and then the temporal change in fluorescent intensity was measured. […]

Compound	detection of activity potential waveforms from single cardiomyocytes (FIG. 5)
vitamin E	became observable
CC(C)CCC[C@@H](C)[C@H]1CC[C@H]2[C@@H]3CC=C4C[C@@H](O)CC[C@]4(C)[C@H]3CC[C@]12C [cholesterol]	became observable
